Experimental findings from patent publication US8178077B2, “Drug development target protein and target gene, and method of screening” (Reverse Proteomics Research Institute Co., Ltd., priority 2004, dated 2012) are described below.

Counter-ions that a name gives are not always drawn.

The target in this experiment is T1, FLJ39196 clone-derived protein (human neurocalcin δ) (Homo sapiens, UniProt P61601).
T1 construct: A human full-length cDNA clone was expressed as a protein with an N-terminal His tag; His tag (N); made in house; host or cells: Escherichia coli BL21star(DE3)pLysS (pDEST17 Gateway expression plasmid)
Put plainly: SEC/MS interaction analysis (size exclusion spin column and mass analysis) with FLJ39196 clone-derived protein. The class given is binding. From the text:
To analyze the interactions between commonly used drugs and proteins expressed from human full-length cDNA clones while keeping both the proteins and the compounds in non-modified, non-immobilized state, size exclusion chromatography (SEC) and mass analysis were used in combination (FIGS. 1, 2). The specific procedures are shown below.
The compound-protein mixture prepared in step 1 was subjected to chromatography using an SEC column, the compound and the protein were separated by SEC, and the compound that interacted with the bound compound or protein contained in the protein fraction was analyzed using a mass analyzer.
Protein concentrations were measured using BCA Protein Assay (PIERCE), in consideration of the purity calculated by SDS-PAGE.
Mass analysis was performed using LCQ DECA XP (Thermoelectron) or Q-TOFmicro (Micromass), equipped with an ESI probe. The LC pump used was Agilent 1100 (Yokogawa Analytical Systems), and the autosampler used was HTC-PAL (CTC Analytics) equipped with a cooling stacker.
In the SEC method using 384-well spin columns, Unifilter 100 (Whatman), packed with 10 μL (dry volume) of Bio-Gel P6 (BIO-RAD) and swollen with milliQ water, was used as the SEC column. 13.3 μL of a protein-free reference standard or a 25 μM protein standard and 0.7 μL of a multiplied liquid comprising 25 μM of each pharmaceutical compound (5% DMSO aqueous solution) were mixed; 9 μL of this mixture was aliquoted into the SEC spin columns. The SEC spin column was mounted on an acetonitrile-aliquoted 384-well U-bottom plate and centrifuged; the SEC spin column filtrate, which is a protein fraction, was retrieved in 50% acetonitrile. The protein precipitate produced by the acetonitrile was removed via centrifugation and filtration for deproteinization; the resulting filtrate was concentrated by centrifugation and re-dissolved in 10 μL of 50% methanol to obtain a mass analysis sample. The mobile phase supplied to the mass analyzer was 0.1% formic acid/50% methanol solution in the positive ion mode, and 0.1% ammonia/50% methanol solution in the negative ion mode; these mobile phases were used at a flow rate of 40 μL/min. 2-μL of mass analysis samples were injected using an autosampler at 2-minute intervals; the mass spectral intensity of the compound was measured to obtain the spectral intensity of the pharmaceutical compound contained in the SEC spin column filtrate (protein fraction eluted from SEC).
(Size exclusion chromatography separates by hydrodynamic size, large species first.)

The mark [1] stands for this setting: protein 0 μM (protein-free reference), compound 1 μM.
The mark [2] stands for this setting: protein 0 μM (protein-free reference), compound 10 μM.
The mark [3] stands for this setting: protein 0 μM (protein-free reference), compound 100 μM.
The mark [4] stands for this setting: protein 0 μM (protein-free reference), compound 250 μM.
Where [5] appears, read: protein 23.75 μM, compound 1 μM.
Where [6] appears, read: protein 23.75 μM, compound 10 μM.
The mark [7] stands for this setting: protein 23.75 μM, compound 100 μM.
Where [8] appears, read: protein 23.75 μM, compound 250 μM.
Setting [9] is: protein 47.5 μM, compound 10 μM.
[10] abbreviates: protein 47.5 μM, compound 100 μM.
Setting [11] is: protein 47.5 μM, compound 250 μM.

Consider `Cc1cc(-c2ccccc2)nnc1NCCN1CCOCC1` [Minaprine], for which the “spectral intensity of the compound in the SEC spin column filtrate (protein fraction)” value (“spectral intensity … (protein fraction)” below) under setting [1] amounted to 15652447; the “spectral intensity … (protein fraction)” value under setting [2] is listed as 95722839; the “spectral intensity … (protein fraction)” value under setting [3] came to 530918568; the “spectral intensity … (protein fraction)” value under setting [4] is reported as 1025547751; the “spectral intensity … (protein fraction)” value under setting [5] is reported as 10946604; the “spectral intensity … (protein fraction)” value under setting [6] was 88615018. Besides, the “spectral intensity … (protein fraction)” value reads like this: under setting [7], 727082711; under setting [8], 1272226745; (protein 47.5 μM, compound 1 μM) 10185140; under setting [9], 49245292; under setting [10], 427303459; under setting [11], 1448860391.

For the compound `CC(O)(CS(=O)(=O)c1ccc(F)cc1)C(=O)Nc1ccc(C#N)c(C(F)(F)F)c1` (stereo not drawn) [Bicaltamide], the “spectral intensity … (protein fraction)” value reads like this: under setting [1], 196020; under setting [2], 269681; under setting [3], 3889442; under setting [4], 1804944; under setting [5], 264437; under setting [6], 914364. Also, the “spectral intensity … (protein fraction)” value is 18349511 under setting [7]; 53664833 under setting [8]; 390946 (protein 47.5 μM, compound 1 μM); 4168309 under setting [9]; 24933110 under setting [10]; 112816687 under setting [11].

As to `O=C(c1ccc(OCCN2CCCCC2)cc1)c1c(-c2ccc(O)cc2)sc2cc(O)ccc12` [Raloxifene hydrochloride], the “spectral intensity … (protein fraction)” value came out at 3754698 under setting [1]; 2330594 under setting [2]; 7909682 under setting [3]; 10553153 under setting [4]; 3790373 under setting [5]; 6024709 under setting [6]. The “spectral intensity … (protein fraction)” value under setting [7] was determined as 124641622; the “spectral intensity … (protein fraction)” value under setting [8] came out at 157539770; the “spectral intensity … (protein fraction)” value (protein 47.5 μM, compound 1 μM) stood at 3014448; the “spectral intensity … (protein fraction)” value under setting [9] turned out to be 17385466; the “spectral intensity … (protein fraction)” value under setting [10] was 122918120; the “spectral intensity … (protein fraction)” value under setting [11] is reported as 666932700.

Consider `NS(=O)(=O)c1cc2c(cc1Cl)N=C(CSCc1ccccc1)NS2(=O)=O` [Benzthiazide], for which the “spectral intensity … (protein fraction)” value came out at 271261 under setting [1]; 505597 under setting [2]; 1323031 under setting [3]; 1475428 under setting [4]; 361168 under setting [5]; 1095223 under setting [6]. The “spectral intensity … (protein fraction)” value came to 9348303 under setting [7]; 25333199 under setting [8]; 249695 (protein 47.5 μM, compound 1 μM); 1261413 under setting [9]; 16067473 under setting [10]; 28434802 under setting [11].

Consider `CC(C)[C@@]1(NC(=O)[C@@H]2C[C@@H]3c4cccc5[nH]cc(c45)C[C@H]3N(C)C2)O[C@@]2(O)[C@@H]3CCCN3C(=O)[C@H](Cc3ccccc3)N2C1=O` [Dihydroergocristine], for which the “spectral intensity … (protein fraction)” value under setting [1] was determined as 25663523; the “spectral intensity … (protein fraction)” value under setting [2] is given as 10810305; the “spectral intensity … (protein fraction)” value under setting [3] was 75466444; the “spectral intensity … (protein fraction)” value under setting [4] is 137535150; the “spectral intensity … (protein fraction)” value under setting [5] is listed as 68120944; the “spectral intensity … (protein fraction)” value under setting [6] was 327393156. Further, the “spectral intensity … (protein fraction)” value came out at 910395859 under setting [7]; 871970698 under setting [8]; 95970671 (protein 47.5 μM, compound 1 μM); 593118709 under setting [9]; 1961163889 under setting [10]; 2985742521 under setting [11].

As for `OCCN1CCN(CC/C=C2/c3ccccc3Sc3ccc(C(F)(F)F)cc32)CC1` [Flupentixol cis-(Z)], the “spectral intensity … (protein fraction)” value runs as follows: under setting [1], 57845690; under setting [2], 59201705; under setting [3], 138331819; under setting [4], 1019443291; under setting [5], 38801184; under setting [6], 66148127. Also, the “spectral intensity … (protein fraction)” value runs as follows: under setting [7], 474717521; under setting [8], 1437323119; (protein 47.5 μM, compound 1 μM) 54783295; under setting [9], 82852252; under setting [10], 1301876646; under setting [11], 1766098462.

For `CCOC(=O)Oc1c(OC)cc(C(=O)O[C@@H]2C[C@@H]3CN4CCc5c([nH]c6cc(OC)ccc56)[C@H]4C[C@@H]3[C@H](C(=O)OC)[C@H]2OC)cc1OC` [Syrosingopine], the “spectral intensity … (protein fraction)” value under setting [1] was determined as 38126829; the “spectral intensity … (protein fraction)” value under setting [2] was determined as 47209784; the “spectral intensity … (protein fraction)” value under setting [3] worked out at 41362697; the “spectral intensity … (protein fraction)” value under setting [4] is 38512184; the “spectral intensity … (protein fraction)” value under setting [5] is 63594361; the “spectral intensity … (protein fraction)” value under setting [6] is listed as 101347281. The “spectral intensity … (protein fraction)” value reads like this: under setting [7], 465474678; under setting [8], 596250311; (protein 47.5 μM, compound 1 μM) 70443152; under setting [9], 105524442; under setting [10], 897067633; under setting [11], 1499127775.
